Reference: US20240246918A1, “COMPOUNDS AND COMPOSITIONS AS EIF4E INHIBITORS AND THE USES THEREOF” (Ribometrix, Inc., priority 2022, published 2024)

What was measured:
[1] = system: COLO 205 colorectal tumor cells; assay: Tumor cell viability inhibition assay (CellTiter-Glo 2.0, 72 hours); type: cell-based; details: COLO 205 cell viability
Method in brief: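 IC50 derived by 4-parameter fitting after normalizing luminescence to DMSO and max-inhibition wells. Compounds tested as 11 concentrations in 4-fold steps on COLO 205 cells seeded at 1500 per well in RPMI-1640/10% FBS; ATP content measured with CellTiter-Glo 2.0 after 72 h.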

[2] = target: T1, human eIF4E protein (Homo sapiens, UniProt P06730); assay: Biochemical competitive binding assay (TR-FRET competition, EDA-m7GDP-ATTO-647N probe); details: read-out: hEIF4E TR-FRET IC50
T1 construct: purchased Novus NBP-45314
Method in brief: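 IC50 values come from 4-parameter fits of the normalized 665/620 nm TR-FRET ratio. Compound was first incubated 15 min with 4 nM recombinant His-eIF4E bound to 2.5 nM Eu-anti-His antibody, then 15 min with 5 nM m7GDP-ATTO-647N tracer, in pH 7.5 HEPES buffer with 100 mM KCl, Tween-20 and BSA.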

T1 sequence (P06730 whole entry): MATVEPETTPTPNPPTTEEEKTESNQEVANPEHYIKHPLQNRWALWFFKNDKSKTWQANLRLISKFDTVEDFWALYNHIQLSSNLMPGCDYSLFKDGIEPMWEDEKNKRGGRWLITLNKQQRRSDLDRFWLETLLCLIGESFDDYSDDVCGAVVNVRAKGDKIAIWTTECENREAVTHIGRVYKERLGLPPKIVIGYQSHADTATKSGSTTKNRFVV

| SMILES | IC50 [1] [µM] | IC50 [2] [µM] | IC50 ([1]; Homo sapiens, COLO 205, 72 h) [µM] |
| --- | --- | --- | --- |
| Cc1nc2c(c(=O)n1CC#Cc1ccc(Cl)cc1-c1ccnc3c(C(=O)O)csc13)C[C@H](N1CCC[C@]3(C1)CC3(F)F)CC2 (single isomer, unassigned) [Compound 570, 7-(5-chloro-2-(3-(6-(1,1-difluoro-5-azaspiro[2.5]octan-5-yl)-2-methyl-4-oxo-5,6,7,8-tetrahydroquinazolin-3(4H)-yl)prop-1-yn-1-yl)phenyl)thieno[3,2-b]pyridine-3-carboxylic acid] | – | < 0.1 | < 5 |
| Cc1cc(-c2cc(Cl)ccc2OCCn2c(C)nc3c(c2=O)C[C@H](N2CCC(c4ccccc4OC(F)(F)F)CC2)CC3)c2scc(C(=O)O)c2n1 (single isomer, unassigned) [Compound 571] | – | < 0.1 | < 5 |
| Cc1cc(-c2cc(Cl)ccc2OCCn2c(C)nc3c(c2=O)C[C@@H](N2CCC(c4ccccc4OC(F)(F)F)CC2)CC3)c2scc(C(=O)O)c2n1 (single isomer, unassigned) [Compound 572] | – | < 0.1 | < 5 |
| Cc1cc(-c2cc(Cl)ccc2OCCn2c(C)nc3c(c2=O)CC(N2CCC(OC(F)(F)F)CC2)CC32CC2)c2scc(C(=O)NS(C)(=O)=O)c2n1 (single isomer, unassigned) [Compound 579, 7-(5-chloro-2-(2-(2′-methyl-4′-oxo-6′-(4-(trifluoromethoxy)piperidin-1-yl)-6′,7′-dihydro-4′H-spiro[cyclopropane-1,8′-quinazolin]-3′(5′H)-yl)ethoxy)phenyl)-5-methyl-N-(methylsulfonyl)thieno[3,2-b]pyridine-3-carboxamide] | – | < 0.1 | < 5 |
| Cc1cc(-c2cc(Cl)ccc2OCCn2c(C)nc3c(c2=O)C[C@H](N2CCC(c4cnc(C(F)(F)F)nc4)CC2)CC3)c2scc(C(=O)O)c2n1 (single isomer, unassigned) [Compound 584] | – | < 0.1 | 5 to 20 |
| Cc1cc(-c2cc(Cl)ccc2OCCn2c(C)nc3c(c2=O)C[C@@H](N2CCC(c4cnc(C(F)(F)F)nc4)CC2)CC3)c2scc(C(=O)O)c2n1 (single isomer, unassigned) [Compound 585] | – | < 0.1 | < 5 |
| Cc1cc(-c2cc(Cl)ccc2OCCn2c(C)nc3c(c2=O)C[C@@H](N2CCC(c4cc(F)ccc4C(F)(F)F)CC2)CC3)c2scc(C(=O)O)c2n1 (single isomer, unassigned) [Compound 586] | – | < 0.1 | < 5 |
| Cc1cc(-c2cc(Cl)ccc2OCCn2c(C)nc3c(c2=O)C[C@H](N2CCCC[C@H]2c2cccc(C(F)(F)F)c2)CC3)c2scc(C(=O)O)c2n1 (single isomer, unassigned) [Compound 587] | – | < 0.1 | < 5 |
| Cc1cc(-c2cc(Cl)ccc2OCCn2c(C)nc3c(c2=O)C[C@@H](N2CCCC[C@@H]2c2cccc(C(F)(F)F)c2)CC3)c2scc(C(=O)O)c2n1 (single isomer, unassigned) [Compound 588] | – | 0.1 to 0.5 | 5 to 20 |
| Cc1cc(-c2cc(Cl)ccc2OCCn2c(C)nc3c(c2=O)C[C@@H](N2CCCC[C@H]2c2cccc(C(F)(F)F)c2)CC3)c2scc(C(=O)O)c2n1 (single isomer, unassigned) [Compound 589] | – | 0.1 to 0.5 | > 20 |
| Cc1nc2c(c(=O)n1CC#Cc1ccc(Cl)cc1-c1ccnc3c(C(=O)NS(C)(=O)=O)csc13)CC(N1CCC(OC(F)(F)F)CC1)CC2 (single isomer, unassigned) [Compound 592] | – | < 0.1 | < 5 |

Other lines, results leading:

| IC50 [1] [µM] | IC50 [2] [µM] | IC50 ([1]; Homo sapiens, COLO 205, 72 h) [µM] | SMILES |
| --- | --- | --- | --- |
| < 5 | < 0.1 | – | COC1CCN(C2(C)CCc3nc(C)n(CCOc4ccc(Cl)cc4-c4cc(C)nc5c(C(=O)O)csc45)c(=O)c3C2)CC1(C)C (single isomer, unassigned) [Compound 565] |
| – | < 0.1 | < 5 | Cc1cc(-c2cc(Cl)ccc2OCCn2c(C)nc3c(c2=O)C[C@H](N(C)CC2CC(F)(F)C2)CC32CC2)c2scc(C(=O)O)c2n1 (single isomer, unassigned) [Compound 568] |
| – | < 0.1 | < 5 | Cc1cc(-c2cc(Cl)ccc2OCCn2c(C)nc3c(c2=O)C[C@@H](N(C)CC2CC(F)(F)C2)CC32CC2)c2scc(C(=O)O)c2n1 (single isomer, unassigned) [Compound 569] |
| – | < 0.1 | < 5 | Cc1cc(-c2cc(Cl)ccc2OCCn2c(C)nc3c(c2=O)C[C@H](N2CCC(c4cc(F)cc(F)c4F)CC2)CC3)c2scc(C(=O)O)c2n1 (single isomer, unassigned) [Compound 573] |
| – | < 0.1 | < 5 | Cc1cc(-c2cc(Cl)ccc2OCCn2c(C)nc3c(c2=O)C[C@@H](N2CCC(c4cc(F)cc(F)c4F)CC2)CC3)c2scc(C(=O)O)c2n1 (single isomer, unassigned) [Compound 574] |
| – | < 0.1 | < 5 | COc1cc(C2CCN([C@@H]3CCc4nc(C)n(CCOc5ccc(Cl)cc5-c5cc(C)nc6c(C(=O)O)csc56)c(=O)c4C3)CC2)ccn1 (single isomer, unassigned) [Compound 575] |
| – | < 0.1 | < 5 | COc1cc(C2CCN([C@H]3CCc4nc(C)n(CCOc5ccc(Cl)cc5-c5cc(C)nc6c(C(=O)O)csc56)c(=O)c4C3)CC2)ccn1 (single isomer, unassigned) [Compound 576] |
| – | < 0.1 | < 5 | Cc1cc(-c2cc(Cl)ccc2OCCn2c(C)nc3c(c2=O)C[C@H](N2CCC(c4nc(C(F)(F)F)cs4)CC2)CC3)c2scc(C(=O)O)c2n1 (single isomer, unassigned) [Compound 577] |
| – | < 0.1 | < 5 | Cc1cc(-c2cc(Cl)ccc2OCCn2c(C)nc3c(c2=O)C[C@@H](N2CCC(c4nc(C(F)(F)F)cs4)CC2)CC3)c2scc(C(=O)O)c2n1 (single isomer, unassigned) [Compound 578] |
| – | < 0.1 | < 5 | Cc1cc(-c2cc(Cl)ccc2OCCn2c(C)nc3c(c2=O)C[C@H](N2CCC[C@@]4(C2)CC4(F)F)CC32CC2)c2scc(C(=O)O)c2n1 (single isomer, unassigned) [Compound 580] |
| – | < 0.1 | < 5 | Cc1cc(-c2cc(Cl)ccc2OCCn2c(C)nc3c(c2=O)C[C@H](N2CCC[C@]4(C2)CC4(F)F)CC32CC2)c2scc(C(=O)O)c2n1 (single isomer, unassigned) [Compound 581] |
| – | < 0.1 | < 5 | Cc1cc(-c2cc(Cl)ccc2OCCn2c(C)nc3c(c2=O)C[C@@H](N2CCC[C@@]4(C2)CC4(F)F)CC32CC2)c2scc(C(=O)O)c2n1 (single isomer, unassigned) [Compound 582] |
| – | < 0.1 | < 5 | Cc1cc(-c2cc(Cl)ccc2OCCn2c(C)nc3c(c2=O)C[C@@H](N2CCC[C@]4(C2)CC4(F)F)CC32CC2)c2scc(C(=O)O)c2n1 (single isomer, unassigned) [Compound 583] |
| – | 0.5 to 5 | > 20 | Cc1cc(-c2cc(Cl)ccc2OCCn2c(C)nc3c(c2=O)C[C@H](N2CCCC[C@@H]2c2cccc(C(F)(F)F)c2)CC3)c2scc(C(=O)O)c2n1 (single isomer, unassigned) [Compound 590] |
| – | < 0.1 | < 5 | Cc1cc(-c2cc(Cl)ccc2OCCn2c(C)nc3c(c2=O)C[C@@H](N2CCC4(CC2)CC4(F)F)CC32CC2)c2scc(C(=O)O)c2n1 (single isomer, unassigned) [Compound 591] |
